Calls of active or inactive are those of the source. The rule behind the calls is not given here.

For orientation: inhibition means the drop in the measured response relative to a control, in per cent. The IC50 is the concentration at which inhibition is half-maximal.

Assay [1] relates to HT-29. The experiment in a line: Antiproliferative activity against human HT-29 cells overexpressing c-Src at 50 uM after 72 hrs by Cell titer assay. In kind it is functional. The following applies: for inhibition at 50 µM: HT-29, 72 h.
The target of assay [2] is Proto-oncogene tyrosine-protein kinase Src (Homo sapiens, UniProt P12931). Kind of assay: Inhibition of His6-tagged c-Src kinase domain using AEEEIYGEFEAKKKK as substrate pre-incubated for 10 mins before substrate addition measured after 30 mins by Transcreener ADP2 FI Assay.
Proto-oncogene tyrosine-protein kinase Src, sequence (P12931 2-536 limits assumed): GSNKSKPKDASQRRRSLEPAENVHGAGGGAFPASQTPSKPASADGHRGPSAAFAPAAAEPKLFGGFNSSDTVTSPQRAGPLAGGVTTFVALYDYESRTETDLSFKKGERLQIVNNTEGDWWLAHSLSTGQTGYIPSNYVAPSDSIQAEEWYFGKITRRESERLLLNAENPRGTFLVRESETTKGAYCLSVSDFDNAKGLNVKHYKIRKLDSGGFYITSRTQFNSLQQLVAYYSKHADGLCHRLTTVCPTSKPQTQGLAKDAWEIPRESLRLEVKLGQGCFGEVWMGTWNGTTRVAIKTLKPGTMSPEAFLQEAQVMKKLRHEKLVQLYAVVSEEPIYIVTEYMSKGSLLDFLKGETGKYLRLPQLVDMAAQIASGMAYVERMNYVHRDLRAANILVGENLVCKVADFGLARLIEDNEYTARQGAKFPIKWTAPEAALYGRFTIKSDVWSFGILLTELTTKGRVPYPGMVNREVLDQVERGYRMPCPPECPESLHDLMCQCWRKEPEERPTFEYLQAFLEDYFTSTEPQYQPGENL
The test system of assay [3] is SK-OV-3. Kind of assay: Antiproliferative activity against human SKOV3 cells overexpressing c-Src at 50 uM after 72 hrs by Cell titer assay. The format is functional. The following applies: for inhibition at 50 µM: SK-OV-3, 72 h.

Regarding `CC1(C)OC(=O)c2c(nn(-c3ccc(Cl)cc3)c2-c2ccc(C(C)(C)C)cc2)O1`, the inhibition entry in assay [1] and in assay [3] was “Active” each time. For the same molecule, the IC50 in assay [2] was above 150 µM.

In the case of `CC1(C)CC(=O)c2c(nn(-c3ccc(Cl)c(Cl)c3)c2-c2ccc(Cl)cc2)C1`, the inhibition result in assay [1] and in assay [3] was “Active” each time. Also, the IC50 in assay [2] turned out to be 86 µM.

In the case of `Cc1ccc(-c2c3c(nn2-c2ccc[nH]2)CC(C)(C)CC3=O)cc1Cl`, the inhibition entry in assay [1] and in assay [3] was “Active” each time. For the same molecule, the IC50 in assay [2] is above 150 µM.

Take `Cc1ccc(-n2nc3c(c2C2CCCCC2)C(=O)CCC3)cc1`: the inhibition result in assay [1] and in assay [3] was “Active” throughout. Also, in assay [2], it took 57.7 µM to reach half-maximal inhibition (IC50).

As for `O=C1CCCc2nn(-c3ccccc3F)c(-c3ccc(Cl)c(Cl)c3)c21`, the inhibition entry in assay [1] and in assay [3] was “Active” in each case. In assay [2], this molecule showed a half-inhibitory concentration (IC50) above 150 µM.

`Cc1ccc(-c2c3c(nn2-c2ccncc2)CC(C)(C)CC3=O)cc1Cl` had an inhibition at 50 µM in assay [1] of 65%. The midpoint of inhibition in assay [2], the IC50, lay at 74.3 µM. Besides, the inhibition result in assay [3] is “Active”.

`CC1(C)CC(=O)c2c(nn(-c3ccc([N+](=O)[O-])cc3)c2C2CCCCC2)C1`: the inhibition entry in assay [1] and in assay [3] was “Active” throughout. The molecule also returned an IC50 in assay [2] above 150 µM.

As to `O=C1CCCc2nn(-c3ccc([N+](=O)[O-])cc3)c(-c3ccc(Cl)c(Cl)c3)c21`, the inhibition entry in assay [1] and in assay [3] was “Active” each time. Further, the IC50 in assay [2] is above 150 µM.

Take `COc1cccc(-n2nc3c(c2-c2ccc(C)c(Cl)c2)C(=O)CCC3)c1`: the inhibition result in assay [1] and in assay [3] was “Active” each time. In assay [2], this molecule registered an IC50 of 82.7 µM.

In the case of `COc1ccc(-n2nc3c(c2-c2ccc(Cl)c(Cl)c2)C(=O)CCC3)cc1`, the inhibition result in assay [1] and in assay [3] was “Active” each time. In assay [2], the IC50 is above 150 µM.

`Cc1ccc(-c2c3c(nn2-c2ccc(Cl)cc2)CC(C)(C)CC3=O)cc1Cl`: the inhibition result in assay [1] and in assay [3] was “Active” in each case. Further, half-maximal inhibition in assay [2] (IC50) was put at 132 µM.

With `CC1(C)CC(=O)c2c(nn(-c3ccc[nH]3)c2-c2ccc(Cl)c(Cl)c2)C1`, the inhibition entry in assay [1] and in assay [3] was “Active” each time. In assay [2], this molecule had an IC50 above 150 µM.

Turning to `COc1cccc2c1C(=O)c1c(O)c3c(c(O)c1C2=O)C[C@@](O)(C(=O)CO)C[C@@H]3O[C@H]1C[C@H](N)[C@H](O)[C@H](C)O1`, the inhibition result in assay [1] and in assay [3] was “Active” throughout.

On to `CC1(C)CC(=O)c2c(nn(-c3cccs3)c2C2CCCCC2)C1`, for which the figures for the inhibition at 50 µM in assay [1] and in assay [3] were 48% and 49%, respectively. The molecule also yielded an IC50 in assay [2] of 77.3 µM.

In the case of `CC1(C)CC(=O)c2c(nn(-c3ccc(Cl)cc3)c2-c2ccc(C(C)(C)C)cc2)C1`, the inhibition entry in assay [1] and in assay [3] was “Active” each time. In assay [2], the IC50 was above 150 µM.

Molecule `O=C1CCCc2nn(-c3ccccc3)c(-c3ccc(Cl)c(Cl)c3)c21` showed an inhibition at 50 µM in assay [1] of 65%. The same molecule registered a half-inhibitory concentration (IC50) in assay [2] of 65.8 µM. Also, the inhibition entry in assay [3] was “Active”.

On to `Cc1ccc(-n2nc3c(c2-c2ccc(C(C)(C)C)cc2)C(=O)CC(C)(C)C3)cc1`, for which the inhibition result in assay [1] and in assay [3] was “Active” in each case. This molecule displayed an IC50 in assay [2] above 150 µM.

In the case of `Cc1ccc(-n2nc3c(c2-c2ccc(Cl)c(Cl)c2)C(=O)CCC3)cc1`, the inhibition at 50 µM in assay [1] came out at 48%; in assay [3], 49%. In addition, the IC50 in assay [2] was above 150 µM.

With `CC1(C)OC(=O)c2c(nn(-c3ccc(Cl)cc3)c2C2CCCCC2)O1`, the inhibition entry in assay [1] and in assay [3] was “Active” each time. Moreover, the IC50 in assay [2] was above 150 µM.

Take `COc1ccc(-n2nc3c(c2-c2ccc(Cl)c(Cl)c2)C(=O)CC(C)(C)C3)cc1`: the inhibition entry in assay [1] and in assay [3] was “Active” throughout. The molecule also displayed an IC50 in assay [2] of 94.1 µM.

On to `CC1(C)CC(=O)c2c(nn(-c3ccccc3)c2-c2ccc(Cl)c(Cl)c2)C1`, for which the inhibition entry in assay [1] and in assay [3] was “Active” in each case. The molecule further registered an IC50 in assay [2] of 62.1 µM.

`COc1ccc(-n2nc3c(c2-c2ccc(C(C)(C)C)cc2)C(=O)CC(C)(C)C3)cc1OC` showed an inhibition at 50 µM in assay [1] of 65%. The same molecule came in with an IC50 in assay [2] above 150 µM. Moreover, in assay [3], the inhibition entry was “Active”.

With `O=C1CCCc2nn(-c3cccs3)c(-c3ccc(Cl)c(Cl)c3)c21`, the inhibition at 50 µM in assay [1] is 62%; in assay [3], 58%. Moreover, the IC50 in assay [2] is above 150 µM.

For `CC1(C)CC(=O)c2c(nn(-c3ccc(O)cc3)c2-c2ccc(Cl)c(Cl)c2)C1`, the inhibition entry in assay [1] and in assay [3] was “Active” each time. This molecule yielded an IC50 in assay [2] of 66.6 µM.

Turning to `O=C1CCCc2nn(-c3cccc(Cl)c3)c(C3CCCCC3)c21`, the inhibition entry in assay [1] and in assay [3] was “Active” in each case. In assay [2], this molecule came in with an IC50 of 58.4 µM.

As for `Cc1ccc(-n2nc3c(c2-c2ccc(Cl)c(Cl)c2)C(=O)CC(C)(C)C3)cc1`, the inhibition result in assay [1] and in assay [3] was “Active” in each case. The same molecule displayed a concentration for half-maximal inhibition (IC50) in assay [2] above 150 µM.

As to `COc1ccc(-n2nc3c(c2-c2ccc(Cl)c(Cl)c2)C(=O)CCC3)cc1O`, the inhibition result in assay [1] and in assay [3] was “Active” in each case. The same molecule showed an IC50 in assay [2] above 150 µM.

Take `CC1(C)CC(=O)c2c(nn(-c3cccs3)c2-c2ccc(Cl)c(Cl)c2)C1`: the inhibition result in assay [1] and in assay [3] was “Active” each time. In assay [2], this molecule returned an IC50 above 150 µM.

In the case of `O=C1CCCc2nn(-c3ccc(O)cc3)c(-c3ccc(Cl)c(Cl)c3)c21`, the inhibition result in assay [1] and in assay [3] was “Active” in each case. Moreover, in assay [2], the IC50 was above 150 µM.

Consider `COc1ccc(-n2nc3c(c2-c2ccc(C(C)(C)C)cc2)C(=O)CC(C)(C)C3)cc1`, for which the inhibition entry in assay [1] and in assay [3] was “Active” each time. The molecule also showed an IC50 in assay [2] of 35.1 µM.

For the molecule `COc1ccc(-n2nc3c(c2-c2ccc(Cl)c(Cl)c2)C(=O)CC(C)(C)C3)cc1O`, the inhibition entry in assay [1] and in assay [3] was “Active” throughout. The IC50 in assay [2] was above 150 µM.

For `CC1(C)CC(=O)c2c(nn(-c3ccc([N+](=O)[O-])cc3)c2-c2ccc(Cl)c(Cl)c2)C1`, the inhibition result in assay [1] and in assay [3] was “Active” in each case. The molecule also gave an IC50 in assay [2] above 150 µM.

For the molecule `O=C1CCCc2nn(-c3ccc(Cl)cc3)c(-c3ccc(Cl)c(Cl)c3)c21`, the inhibition entry in assay [1] and in assay [3] was “Active” in each case. In assay [2], 81 µM corresponded to half-maximal inhibition (IC50).

The values are drawn from ChEMBL document CHEMBL1932945, “One-pot regioselective synthesis of tetrahydroindazolones and evaluation of their antiproliferative and Src kinase inhibitory activities” (Bioorg Med Chem Lett, 2012).
